ChEMBL document CHEMBL5154787 (J Med Chem, 2022)
≈ marks a conversion by molar mass, not a printed value.

Assays:
[1] = target: Acetylcholine receptor subunit alpha (Homo sapiens, UniProt P02708); experiment: Inhibition of nicotinic acetylcholine receptor alpha 1 (unknown origin); assay type: toxicity
[2] = target: AP2-associated protein kinase 1 (Homo sapiens, UniProt Q2M2I8); experiment: Inhibition of bacterially expressed GST-Xa-tagged human AAK1 using 5-FAM-labelled Aha-KEEQSQITSQVTGQIGWR-NH2 peptide as substrate incubated for 3 hrs in presence of ATP by electrophoretic analysis
[3] = target: Rho-associated protein kinase 2 (Homo sapiens, UniProt O75116); experiment: Inhibition of ROCK2 (unknown origin)
[4] = Inhibition of TAK/TAB (unknown origin)
[5] = Solubility of compound in FessiF incubated for 24 hrs; assay type: physicochemical
[6] = Solubility of compound at pH 5 measured after 24 hrs; assay type: physicochemical; settings: buffer
[7] = Solubility of compound at pH 7.4 measured after 24 hrs; assay type: physicochemical; settings: buffer
[8] = target: Death-associated protein kinase 1 (Homo sapiens, UniProt P53355); experiment: Inhibition of DAPK1 (unknown origin)
[9] = Solubility of compound at pH 6.5 measured after 24 hrs; assay type: physicochemical; settings: buffer
[10] = Solubility of compound at pH 1 measured after 24 hrs; assay type: physicochemical; settings: buffer
[11] = Genotoxicity in chinese hamster CHO cells in presence of metabolic activation system at 169 uM by IVMN assay; assay type: toxicity, cell-based, Cricetulus griseus
[12] = Solubility of compound at pH 2 measured after 24 hrs; assay type: physicochemical; settings: buffer
[13] = target: 5-hydroxytryptamine receptor 2B (Homo sapiens, UniProt P41595); experiment: Inhibition of 5HT2B receptor (unknown origin); assay type: toxicity
[14] = Chemical stability of the compound assessed as remaining product at pH 1 measured after 22 hrs; assay type: physicochemical; settings: buffer, read-out: Stability
Rattus norvegicus [15] = experiment: Analgesic activity in STZ induced in diabetic peripheral neuropathic mechanical allodynia in Sprague-Dawley rat assessed as reduction in pain response at 10 mg/kg, po measured up to 24 hrs by Hargreaves test relative to control; assay type: functional; parameters: scale not given: the % may be the effect or the level left
[16] = Solubility of compound at pH 4 measured after 24 hrs; assay type: physicochemical; settings: buffer
[17] = Genotoxicity in chinese hamster CHO cells without metabolic activation system at 59 uM by IVMN assay; assay type: toxicity, cell-based, Cricetulus griseus
Rattus norvegicus [18] = experiment: Analgesic activity in STZ induced in diabetic peripheral neuropathic mechanical allodynia in Sprague-Dawley rat assessed as reversal in mechanical allodynia by measuring inhibition of pain response at 1 mg/kg, po measured up to 24 hrs by Hargreaves test relative to control; assay type: functional; parameters: scale not given: the % may be the effect or the level left
[19] = Solubility of compound at pH 3 measured after 24 hrs; assay type: physicochemical; settings: buffer
Rattus norvegicus [20] = experiment: Analgesic activity in STZ induced in diabetic peripheral neuropathic mechanical allodynia in Sprague-Dawley rat assessed as reduction in pain response at 3 mg/kg, po measured up to 24 hrs by Hargreaves test relative to control; assay type: functional; parameters: scale not given: the % may be the effect or the level left
[21] = Drug concentration in CCI induced thermal hyperalgesia in Sprague-Dawley rat spinal cord at 3 mg/kg, po measured after 5.5 hrs; assay type: ADME, organism-based; settings: read-out: Ct
[22] = target: TRAF2 and NCK-interacting protein kinase (Homo sapiens, UniProt Q9UKE5); experiment: Inhibition of TNIK (unknown origin)
[23] = Inhibition of cardiac sodium channel (unknown origin); parameters: species or system Homo sapiens
[24] = Protein binding in dog plasma assessed as unbound fraction measured after 3 hrs by LC/MS/MS analysis; assay type: ADME, cell-free, Canis lupus familiaris
[25] = target: ATP-binding cassette sub-family C member 2 (Homo sapiens, UniProt Q92887); experiment: Inhibition of MRP2 (unknown origin)
Rattus norvegicus [26] = experiment: Analgesic activity in CCI induced thermal hyperalgesia in Sprague-Dawley rat assessed as reduction in thermal hyperalgesia by measuring inhibition of pain response at 1 mg/kg, po measured after 5.5 hrs by Hargreaves test relative to control; assay type: functional; parameters: scale not given: the % may be the effect or the level left
Bile salt export pump = Bile salt export pump (Homo sapiens, UniProt O95342); experiment: Inhibition of BSEP (unknown origin)
[27] = Plasma concentration in CCI induced thermal hyperalgesia in Sprague-Dawley rat at 1 mg/kg, po measured at 5.5 hrs post dose; assay type: ADME, organism-based
[28] = Plasma concentration in rat at 3 mg/kg, po measured after 4 hrs; assay type: ADME, organism-based
[29] = Plasma concentration in CCI induced thermal hyperalgesia in Sprague-Dawley rat at 3 mg/kg, po measured at 5.5 hrs post dose; assay type: ADME, organism-based
[30] = target: Citron Rho-interacting kinase (Homo sapiens, UniProt O14578); experiment: Inhibition of CRIK (unknown origin)
Rattus norvegicus [31] = experiment: Analgesic activity in CCI induced thermal hyperalgesia in Sprague-Dawley rat assessed as reduction in thermal hyperalgesia by measuring inhibition of pain response at 3 mg/kg, po measured after 5.5 hrs by Hargreaves test relative to control; assay type: functional; parameters: scale not given: the % may be the effect or the level left
[32] = target: Solute carrier organic anion transporter family member 1B3 (Homo sapiens, UniProt Q9NPD5); experiment: Inhibition of OATP1B3 (unknown origin)
[33] = Drug concentration in CCI induced thermal hyperalgesia in Sprague-Dawley rat spinal cord at 1 mg/kg, po measured after 5.5 hrs; assay type: ADME, organism-based; settings: read-out: Ct
[34] = Ratio of drug concentration in spinal cord to plasma in CCI induced thermal hyperalgesia in Sprague-Dawley rat at 3 mg/kg, po measured at 5.5 hrs post dose; assay type: ADME, organism-based
Rattus norvegicus [35] = experiment: Analgesic activity in STZ induced in diabetic peripheral neuropathic path mechanical allodynia in Sprague-Dawley rat assessed as reversal in mechanical allodynia by measuring inhibition of pain response at 1 mg/kg, po measured up to 5.5 hrs by Hargreaves test relative to control; assay type: functional; parameters: scale not given: the % may be the effect or the level left
[36] = Ratio of drug concentration in spinal cord to plasma in rat at 3 mg/kg, po measured at 4 hrs post dose; assay type: ADME, organism-based
[37] = Protein binding in mouse brain assessed as unbound fraction at 1 uM measured after 4 hrs by LC/MS/MS analysis; assay type: ADME, tissue-based
[38] = In vivo protein occupancy at AAK1 in rat at 3 mg/kg, po measured after 4 hrs; assay type: functional
[39] = Protein binding in cynomolgus monkey plasma assessed as unbound fraction measured after 3 hrs by LC/MS/MS analysis; assay type: ADME, cell-free, Macaca fascicularis
[40] = Tmax in rat at 3 mg/kg, po; assay type: ADME, organism-based; settings: in vivo
[41] = target: Hepatic sodium/bile acid cotransporter (Homo sapiens, UniProt Q14973); experiment: Inhibition of NTCP (unknown origin)
[42] = Ratio of drug concentration in spinal cord to plasma in CCI induced thermal hyperalgesia in Sprague-Dawley rat at 1 mg/kg, po measured at 5.5 hrs post dose; assay type: ADME, organism-based
[43] = target: Organic anion transporter 3 (Homo sapiens, UniProt Q8TCC7); experiment: Inhibition of OAT3 (unknown origin)
Organic anion transporter 3, sequence (Q8TCC7 whole entry): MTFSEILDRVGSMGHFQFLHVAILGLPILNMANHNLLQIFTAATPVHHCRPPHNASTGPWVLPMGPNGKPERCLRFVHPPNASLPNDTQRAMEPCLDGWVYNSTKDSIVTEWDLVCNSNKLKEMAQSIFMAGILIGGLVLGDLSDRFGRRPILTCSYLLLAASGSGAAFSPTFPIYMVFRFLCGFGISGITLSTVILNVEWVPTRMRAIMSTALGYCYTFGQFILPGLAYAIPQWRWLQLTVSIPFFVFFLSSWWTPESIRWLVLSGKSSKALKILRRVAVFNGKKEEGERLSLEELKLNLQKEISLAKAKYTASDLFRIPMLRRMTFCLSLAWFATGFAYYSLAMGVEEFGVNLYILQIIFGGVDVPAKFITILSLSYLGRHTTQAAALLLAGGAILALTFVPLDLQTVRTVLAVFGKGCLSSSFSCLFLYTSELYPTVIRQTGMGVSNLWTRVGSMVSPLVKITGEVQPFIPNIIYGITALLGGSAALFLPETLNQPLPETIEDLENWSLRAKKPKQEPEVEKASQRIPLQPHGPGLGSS

ATP-binding cassette sub-family C member 2, sequence (Q92887 whole entry): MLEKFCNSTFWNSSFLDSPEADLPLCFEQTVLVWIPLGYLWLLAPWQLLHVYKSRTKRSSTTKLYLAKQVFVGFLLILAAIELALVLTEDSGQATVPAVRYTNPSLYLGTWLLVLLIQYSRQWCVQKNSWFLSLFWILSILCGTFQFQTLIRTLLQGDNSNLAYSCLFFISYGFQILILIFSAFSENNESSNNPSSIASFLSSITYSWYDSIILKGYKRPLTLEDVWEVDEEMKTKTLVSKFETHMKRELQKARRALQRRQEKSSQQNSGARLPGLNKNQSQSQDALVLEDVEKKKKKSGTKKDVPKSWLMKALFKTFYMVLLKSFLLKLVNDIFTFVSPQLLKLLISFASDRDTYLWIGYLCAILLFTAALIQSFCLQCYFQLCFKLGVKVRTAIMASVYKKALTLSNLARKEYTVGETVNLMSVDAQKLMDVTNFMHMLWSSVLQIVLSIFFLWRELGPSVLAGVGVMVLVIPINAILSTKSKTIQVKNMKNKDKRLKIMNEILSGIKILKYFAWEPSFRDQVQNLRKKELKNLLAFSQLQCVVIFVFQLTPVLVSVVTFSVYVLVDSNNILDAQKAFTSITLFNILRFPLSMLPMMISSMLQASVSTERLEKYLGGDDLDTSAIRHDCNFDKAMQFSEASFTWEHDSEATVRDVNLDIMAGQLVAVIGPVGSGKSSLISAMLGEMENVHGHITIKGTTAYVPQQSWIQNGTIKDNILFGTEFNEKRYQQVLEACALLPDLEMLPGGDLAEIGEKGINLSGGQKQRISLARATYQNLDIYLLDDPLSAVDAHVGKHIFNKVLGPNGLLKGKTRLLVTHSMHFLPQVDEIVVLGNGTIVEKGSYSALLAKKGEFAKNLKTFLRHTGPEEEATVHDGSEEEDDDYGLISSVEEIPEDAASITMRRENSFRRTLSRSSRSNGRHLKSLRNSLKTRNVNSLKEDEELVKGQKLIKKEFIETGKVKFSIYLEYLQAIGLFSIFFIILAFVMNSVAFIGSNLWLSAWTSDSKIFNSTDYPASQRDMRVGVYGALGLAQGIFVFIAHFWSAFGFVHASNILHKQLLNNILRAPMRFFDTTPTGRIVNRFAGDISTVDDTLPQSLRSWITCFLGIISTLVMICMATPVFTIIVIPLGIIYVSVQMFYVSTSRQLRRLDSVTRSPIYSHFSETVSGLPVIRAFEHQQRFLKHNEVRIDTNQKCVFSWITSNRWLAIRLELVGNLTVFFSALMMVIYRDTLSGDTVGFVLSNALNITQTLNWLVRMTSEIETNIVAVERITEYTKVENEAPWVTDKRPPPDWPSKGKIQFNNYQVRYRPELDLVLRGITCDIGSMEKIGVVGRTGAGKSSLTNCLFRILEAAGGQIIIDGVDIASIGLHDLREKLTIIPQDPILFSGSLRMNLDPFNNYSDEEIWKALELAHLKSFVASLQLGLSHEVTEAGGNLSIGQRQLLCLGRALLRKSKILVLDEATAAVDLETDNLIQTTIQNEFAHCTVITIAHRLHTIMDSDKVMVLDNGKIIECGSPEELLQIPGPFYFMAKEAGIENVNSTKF
Citron Rho-interacting kinase, sequence (O14578 whole entry): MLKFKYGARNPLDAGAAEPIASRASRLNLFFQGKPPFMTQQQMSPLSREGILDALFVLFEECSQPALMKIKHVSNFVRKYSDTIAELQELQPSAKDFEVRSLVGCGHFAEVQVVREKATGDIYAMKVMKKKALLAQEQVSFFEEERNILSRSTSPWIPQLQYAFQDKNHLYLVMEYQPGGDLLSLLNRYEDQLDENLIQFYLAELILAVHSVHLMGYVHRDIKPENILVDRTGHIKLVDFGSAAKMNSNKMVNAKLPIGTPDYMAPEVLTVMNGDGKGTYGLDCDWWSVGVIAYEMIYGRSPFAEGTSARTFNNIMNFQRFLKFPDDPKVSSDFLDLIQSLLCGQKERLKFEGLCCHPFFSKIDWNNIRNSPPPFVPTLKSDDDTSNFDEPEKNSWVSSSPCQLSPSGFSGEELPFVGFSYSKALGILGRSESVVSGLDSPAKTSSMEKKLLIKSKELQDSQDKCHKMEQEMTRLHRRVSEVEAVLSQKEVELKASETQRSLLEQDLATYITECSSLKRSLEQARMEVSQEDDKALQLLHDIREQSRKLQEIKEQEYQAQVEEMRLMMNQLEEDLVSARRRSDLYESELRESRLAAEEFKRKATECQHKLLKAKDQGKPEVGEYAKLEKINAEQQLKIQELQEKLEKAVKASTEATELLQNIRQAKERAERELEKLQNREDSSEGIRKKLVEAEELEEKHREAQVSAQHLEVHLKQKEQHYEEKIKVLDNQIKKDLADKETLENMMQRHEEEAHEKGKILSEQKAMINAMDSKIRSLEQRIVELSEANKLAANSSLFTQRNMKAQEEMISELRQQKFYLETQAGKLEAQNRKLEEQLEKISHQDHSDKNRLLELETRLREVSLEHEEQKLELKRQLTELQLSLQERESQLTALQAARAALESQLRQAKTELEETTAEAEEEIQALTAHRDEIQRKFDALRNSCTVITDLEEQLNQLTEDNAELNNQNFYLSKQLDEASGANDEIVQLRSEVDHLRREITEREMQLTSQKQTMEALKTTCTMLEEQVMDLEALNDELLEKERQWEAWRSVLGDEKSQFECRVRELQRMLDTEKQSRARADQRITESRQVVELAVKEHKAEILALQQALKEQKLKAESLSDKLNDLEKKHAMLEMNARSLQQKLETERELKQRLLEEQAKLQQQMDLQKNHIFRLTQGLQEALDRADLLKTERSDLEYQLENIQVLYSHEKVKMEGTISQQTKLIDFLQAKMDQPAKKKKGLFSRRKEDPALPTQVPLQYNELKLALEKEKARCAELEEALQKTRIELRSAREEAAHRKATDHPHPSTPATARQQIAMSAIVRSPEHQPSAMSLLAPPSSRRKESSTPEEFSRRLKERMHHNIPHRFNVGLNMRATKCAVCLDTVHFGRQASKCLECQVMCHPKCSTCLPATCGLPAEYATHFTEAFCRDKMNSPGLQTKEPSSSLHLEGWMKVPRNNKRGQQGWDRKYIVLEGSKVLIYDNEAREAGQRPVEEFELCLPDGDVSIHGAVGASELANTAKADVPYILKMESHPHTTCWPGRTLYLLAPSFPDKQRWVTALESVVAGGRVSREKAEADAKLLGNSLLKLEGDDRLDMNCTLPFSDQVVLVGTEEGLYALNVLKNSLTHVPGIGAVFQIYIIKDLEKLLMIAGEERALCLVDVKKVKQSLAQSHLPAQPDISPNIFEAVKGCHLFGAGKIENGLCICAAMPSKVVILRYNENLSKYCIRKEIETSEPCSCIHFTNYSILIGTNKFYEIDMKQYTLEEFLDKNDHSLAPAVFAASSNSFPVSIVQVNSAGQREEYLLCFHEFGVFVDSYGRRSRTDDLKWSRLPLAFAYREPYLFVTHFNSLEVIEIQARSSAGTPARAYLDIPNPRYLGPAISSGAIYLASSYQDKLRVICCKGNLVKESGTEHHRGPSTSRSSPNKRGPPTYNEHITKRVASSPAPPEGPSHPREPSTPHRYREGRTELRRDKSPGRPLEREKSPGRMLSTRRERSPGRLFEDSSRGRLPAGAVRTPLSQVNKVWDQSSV
5-hydroxytryptamine receptor 2B, sequence (P41595 whole entry): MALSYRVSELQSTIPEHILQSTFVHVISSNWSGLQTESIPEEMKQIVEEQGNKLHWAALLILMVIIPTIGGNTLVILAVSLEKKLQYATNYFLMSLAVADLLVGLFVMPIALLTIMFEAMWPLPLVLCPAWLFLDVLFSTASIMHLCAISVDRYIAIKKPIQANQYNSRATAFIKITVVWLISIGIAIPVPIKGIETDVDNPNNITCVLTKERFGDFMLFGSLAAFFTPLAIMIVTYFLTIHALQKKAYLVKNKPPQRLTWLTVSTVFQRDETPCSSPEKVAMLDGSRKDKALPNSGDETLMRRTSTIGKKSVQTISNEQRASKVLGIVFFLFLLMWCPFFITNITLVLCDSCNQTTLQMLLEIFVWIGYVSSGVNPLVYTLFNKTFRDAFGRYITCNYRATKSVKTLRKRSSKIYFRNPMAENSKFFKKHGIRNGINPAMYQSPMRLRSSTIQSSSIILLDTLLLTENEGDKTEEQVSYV
Hepatic sodium/bile acid cotransporter, sequence (Q14973 whole entry): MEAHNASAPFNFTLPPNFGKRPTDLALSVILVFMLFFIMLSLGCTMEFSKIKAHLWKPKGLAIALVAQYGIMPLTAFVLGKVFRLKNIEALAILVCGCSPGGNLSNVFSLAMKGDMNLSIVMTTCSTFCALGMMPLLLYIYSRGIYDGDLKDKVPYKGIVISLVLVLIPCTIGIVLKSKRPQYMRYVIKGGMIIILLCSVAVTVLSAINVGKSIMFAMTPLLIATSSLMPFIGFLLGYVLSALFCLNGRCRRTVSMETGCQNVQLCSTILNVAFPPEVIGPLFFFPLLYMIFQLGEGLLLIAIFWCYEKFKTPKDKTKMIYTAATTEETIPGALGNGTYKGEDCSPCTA

Question: Which results are given for `COC(=O)Nc1cc(-c2cnc(OC[C@@](C)(N)CC(C)C)c(C)c2)ccn1`?
Answer: IC50 [1]: 2200 nM; IC50 [2]: 0.9 nM; IC50 [3]: 1300 nM; IC50 [4]: 180 nM

Question: Which results are given for `COC(=O)Nc1cc(-c2ccc(OC[C@@](C)(N)CC(C)C)c(C)n2)ccn1`?
Answer: solubility at 24 h [5]: > 1000 µg/mL; solubility at 24 h [6]: > 1000 µg/mL; solubility at 24 h [7]: 288 µg/mL (≈ 773 µM); IC50 [8]: 1400 nM; solubility at 24 h [9]: > 1000 µg/mL; solubility at 24 h [10]: > 1000 µg/mL; Activity [11]: Non-Toxic; solubility at 24 h [12]: > 1000 µg/mL; IC50 [13]: 540 nM; remaining at 22 h [14]: 100%; Activity (Rattus norvegicus [15]): 80%; solubility at 24 h [16]: > 1000 µg/mL; Activity [17]: Non-Toxic; Activity (Rattus norvegicus [18]): 40%; solubility at 24 h [19]: > 1000 µg/mL; Activity (Rattus norvegicus [20]): 60%

Question: Which results are given for `CC(C)C[C@](C)(N)COc1cnc(-c2ccnc(C(F)F)c2)cc1C(F)F`?
Answer: concentration at 5.5 h [21]: 378 nM; IC50 [22]: 2000 nM; IC50 [23]: 5400 nM; fraction unbound at 3 h [24]: 0.08; IC50 [25]: > 50000 nM; Activity (Rattus norvegicus [26]): 80%; IC50 (Bile salt export pump): > 50000 nM; concentration at 5.5 h [27]: 12 nM; concentration at 4 h [28]: 47 nM; concentration at 5.5 h [29]: 29 nM; IC50 [30]: 1200 nM; Activity (Rattus norvegicus [31]): 100%; IC50 [32]: > 50000 nM; concentration at 5.5 h [33]: 217 nM; Kp at 5.5 h [34]: 13; Activity (Rattus norvegicus [35]): 50%; Kp at 4 h [36]: 17.6; fraction unbound at 4 h, 1 µM [37]: 0.018; Activity [38]: 95%; fraction unbound at 3 h [39]: 0.075; Tmax [40]: 3.7 h; IC50 [41]: > 50000 nM; Kp at 5.5 h [42]: 18; IC50 [43]: > 50000 nM
